Values joined by “and” are separate entries in the source; they are usually repeats but may differ in a detail not shown here. Equal values may be shown once.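 48-hour exposure; five concentrations; linearly interpolated endpoints. GI50: concentration for 50% inhibition of growth. TGI is the concentration that stops growth completely.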
Columns and labels:
Experiment in all cases: growth of human tumour cells (NCI), 48 h
U251 CNS = system: U251 CNS
SK-OV-3 ovarian = system: SK-OV-3 ovarian
CAKI-1 renal = system: CAKI-1 renal
RXF 393 renal = system: RXF 393 renal
TK-10 renal = system: TK-10 renal
KM12 colon = system: KM12 colon
PC-3 prostate = system: PC-3 prostate
SK-MEL-28 melanoma = system: SK-MEL-28 melanoma
CCRF-CEM leukemia = system: CCRF-CEM leukemia
OVCAR-8 ovarian = system: OVCAR-8 ovarian

Structure (SMILES) | GI50 (U251 CNS) | TGI (U251 CNS) | GI50 (SK-OV-3 ovarian) [µM] | TGI (SK-OV-3 ovarian) | GI50 (CAKI-1 renal) [µM] | TGI (CAKI-1 renal) | GI50 (RXF 393 renal) [µM] | TGI (RXF 393 renal) | TGI (TK-10 renal) | GI50 (KM12 colon) | TGI (KM12 colon) | GI50 (PC-3 prostate) [µM] | TGI (PC-3 prostate) | GI50 (SK-MEL-28 melanoma) | TGI (SK-MEL-28 melanoma) | GI50 (CCRF-CEM leukemia) [µM] | GI50 (OVCAR-8 ovarian) | TGI (OVCAR-8 ovarian) [µM] | TGI (CCRF-CEM leukemia) [µM] | GI50 (TK-10 renal) [µM]
COc1cc(/C=C/c2ccnc3ccccc23)cc(OC)c1OC | 3.01 µM | 44.1 µM and 22.8 µM | 5.68 | 46.4 µM and 40.3 µM | 1.89 | 20.8 µM and 26.8 µM | 1.97 | 15.3 µM and 8.02 µM | 30.6 µM and > 100 µM | 1.34 µM | 15.9 µM and 11.1 µM | 3.81 | 94.1 µM and > 100 µM | 4.06 µM | 37.2 µM and > 100 µM | 3.64 | 4.17 µM | > 100 |  | 
O=C(O)c1[nH]c2c([N+](=O)[O-])cc([N+](=O)[O-])cc2c1C(=O)O |  | > 100 µM |  | > 100 µM |  | > 100 µM |  | > 100 µM | > 100 µM |  | > 100 µM |  | > 100 µM |  | > 100 µM |  |  | > 100 | > 100 | 
C[C@@H](Oc1cc(-c2cnn(C3CCNCC3)c2)cnc1N)c1c(Cl)cc(F)cc1Cl | 1.93 µM | 7.65 µM | 3.26 | 10.8 µM | 3.17 | 12.6 µM | 1.5 | 3.09 µM | 11.6 µM | 0.0496 µM | 2.93 µM | 1.99 | 14.7 µM | 1.56 µM | 3.17 µM | 0.504 | 3.83 µM | 16.3 | 9.88 | 3.6
c1ccc2c(c1)[nH]c1c3ccccc3sc21 |  | > 100 µM |  | > 100 µM |  | > 100 µM |  | > 100 µM | > 100 µM |  | > 100 µM |  | > 100 µM |  | > 100 µM |  |  | > 100 | > 100 | 
Cc1cc(OCc2nn(CN3CCN(C)CC3)c(=S)n2/N=C/c2ccc(F)cc2)ccc1Cl |  |  | 19.7 | 44.4 µM | 20.1 | 40.9 µM | 17.5 | 31.9 µM | 33.7 µM | 17.9 µM | 37.5 µM | 16.2 | 31.6 µM | 15.2 µM | 31.5 µM | 19.8 | 18 µM | 32.2 | 43.4 | 14.6
Nc1cc(N)c2nc(-c3ccccc3)c(NCc3ccc(Cl)c(Cl)c3)nc2c1 |  |  | 18.5 | 35.9 µM | 13.2 | 52.7 µM | 3.06 | 16.8 µM | 30.5 µM | 3.42 µM | 21.3 µM | 1.75 | 5.16 µM | 18.8 µM | 41.7 µM | 0.133 | 3.41 µM | 13.5 | 1.83 | 12.8
C1=C\CCCCN2CC[C@H]3[C@H](CCCC/C=C\CCCN4C[C@@H](CCCCC/1)C[C@@H]3C4)C2 | 4.25 µM | 16.5 µM | 13.3 | 26.2 µM | 5.13 | 14.1 µM | 2.72 | 8.17 µM | 12.4 µM | 9.05 µM | 21.5 µM | 14 | 36.6 µM | 1.82 µM | 3.35 µM | 3.64 | 10.8 µM | 25.3 | > 22.6 | 2.98
O=C(O)c1cc(Cl)cc(Cc2cc(Cl)cc(C(=O)O)c2O)c1O |  | > 100 µM |  | > 100 µM |  | > 100 µM |  | > 100 µM | > 100 µM |  | > 100 µM |  | > 100 µM |  | > 100 µM |  |  | > 100 | > 100 | 
NC(Cc1c[nH]c2cccc(F)c12)C(=O)O (configuration not stated) | 50.8 µM and 340 µM | 1280 µM | 518 | > 4500 µM | 1080 | > 4500 µM | 1320 | > 4500 µM | > 4500 µM | 25.2 µM and 230 µM | > 4500 µM |  | > 4500 µM | 74.7 µM and 360 µM | > 4500 µM |  | 72.5 µM and 522 µM | 2820 | > 4500 | 1220
C=C1C(=O)O[C@H]2[C@H]1CC/C(COC(=O)/C=C\C(=O)NCc1ccc(Cn3c(=O)sn(-c4ccc(Cl)cc4)c3=O)cc1)=C\CC[C@@]1(C)O[C@@H]21 | 0.713 µM | 1.6 µM | 4.04 | 10.7 µM | 0.328 | 1.03 µM | 0.476 | 1.09 µM | 1.5 µM | 0.891 µM | 1.82 µM | 0.599 | 1.39 µM | 0.816 µM | 1.55 µM | 0.173 | 0.691 µM | 2.3 | 6.65 | 0.775
CC(C)(C)OC(=O)N1Cc2cc3ccccc3nc2C1CO (configuration not stated) | > 100 µM | > 100 µM | > 100 | > 100 µM | > 100 | > 100 µM | > 100 | > 100 µM | > 100 µM | > 100 µM | > 100 µM | > 100 | > 100 µM | > 100 µM | > 100 µM | > 100 | > 100 µM | > 100 | > 100 | > 100
COc1cccc(-c2nn(-c3ccccc3)cc2-c2ccnc(NCCCNS(=O)(=O)c3ccc(C(F)(F)F)cc3)c2)c1 | 5.63 µM | > 100 µM | 4.82 | > 100 µM | 5.76 | > 100 µM | 3.01 | > 100 µM | > 100 µM | 4.02 µM | > 100 µM | 3.36 | > 100 µM | 9.1 µM | > 100 µM | 5.07 | 7.13 µM | > 100 | > 100 | 9.25
Cc1ccc(C2C3Cc4ccccc4C3=NN2c2ccc(S(=O)(=O)NC(=O)Nc3ccccc3)cc2)cc1 (configuration not stated) | 14.3 µM | 27.3 µM | 16.1 | 31.9 µM | 14.6 | 37.9 µM | 16 | 38.5 µM | 36.4 µM | 17.3 µM | 43.2 µM | 13.5 | 26.3 µM | 22.6 µM | 52.5 µM | 17.8 | 21.6 µM | > 100 | 46.6 | 16
Cc1ccc(NC2=CC(=O)C(=O)c3ccccc32)cc1 | 2.01 µM | 5.71 µM | 11.3 | 23.5 µM | 3.14 | 16.5 µM | 3.32 | 13.7 µM | 11 µM | 2.59 µM | 9.73 µM | 1.87 | 15.7 µM | 1.84 µM | 3.58 µM | 5.62 | 2.4 µM | 7.82 | > 100 | 2.83
